Assay results reported in US20180015065A1, “METHODS OF TREATING UREA CYCLE DISORDERS” (Horizon Therapeutics, LLC, priority 2013, published 2018).
Where “and” joins values, the source holds several entries; their conditions need not be identical. Identical values can stand only once. Like-named read-outs stand apart in the source and are kept apart here.

How the values were obtained:
[1] = Spot urinary PAGN level by dose category, HPN-100-012 safety extension; assay type: in vivo, human; details: pediatric subjects under 6 years, spot urine at 0 hours after overnight fast
Procedure: Pediatric subjects under 6 years of age from the HPN-100-012 safety extension study were divided into three dosing groups: less than 6 mL/m^2, 6-10 mL/m^2, and greater than 10 mL/m^2. Spot urine samples were collected from subjects at 0 hours (i.e., after an overnight fast), and urinary PAGN levels were measured.

ammonia = details: cited from earlier work
[2] = Spot urinary PAGN level by BSA group, subjects 2 years of age and older; assay type: in vivo, human
Procedure: Subjects in Example 4 from all UCD studies and the healthy volunteer study (HPN-100-010) who were 2 years of age and older were divided into two groups based on their BSA: less than or equal to 1.3 m^2 (≦1.3 m^2) and greater than 1.3 m^2 (>1.3 m^2). Spot urine samples were collected from subjects at 24 hours (i.e., after an overnight fast), and urinary PAGN levels were measured.

[3] = Spot urinary PAGN level by age group, all studies; assay type: in vivo, human; details: spot urine after overnight fast
Procedure: Subjects from all studies who had spot urine samples were divided into three age groups: less than 2 years of age; 2 to less than 6 years of age; and 6 years of age and older. Spot urine samples were collected from subjects after an overnight fast, and urinary PAGN levels were measured.

[4] = phase 1; dosages equivalent to the highest approved NaPBA dosage of 20 g/day; cited from earlier work
[5] = Spot urinary PAGN level by BSA group, all UCD studies and healthy volunteer study HPN-100-010; assay type: in vivo, human; details: spot urine at 24 hours after overnight fast
Procedure: Subjects from all UCD studies and the healthy volunteer study (HPN-100-010) were divided into two groups based on their BSA: less than or equal to 1.3 m^2 (≦1.3 m^2) and greater than 1.3 m^2 (>1.3 m^2). Spot urine samples were collected from subjects at 24 hours (i.e., after an overnight fast), and urinary PAGN levels were measured.

[6] = BSA > 1.3 m^2, spot urine at 24 hours after overnight fast
[7] = BSA ≦ 1.3 m^2, spot urine at 24 hours after overnight fast

O=C(CCCc1ccccc1)OCC(COC(=O)CCCc1ccccc1)OC(=O)CCCc1ccccc1 [HPN-100, glyceryl tri-[4-phenylbutyrate]]
Urinary PAGN, 10th percentile ([1]; dose 6-10 mL/m^2): 1288 µg/mL | Urinary PAGN, 25th percentile ([1]; dose 6-10 mL/m^2): 3053 µg/mL | Urinary PAGN, 75th percentile ([1]; dose 6-10 mL/m^2): 20796 µg/mL | Urinary PAGN, 90th percentile ([1]; dose 6-10 mL/m^2): 24429 µg/mL | Urinary PAGN, mean ([1]; dose 6-10 mL/m^2): 12313 µg/mL | Urinary PAGN, median ([1]; dose 6-10 mL/m^2): 12144 µg/mL | Urinary PAGN, 10th percentile ([1]; dose <6 mL/m^2): 643 µg/mL | Urinary PAGN, 25th percentile ([1]; dose <6 mL/m^2): 1256 µg/mL | Urinary PAGN, 75th percentile ([1]; dose <6 mL/m^2): 14290 µg/mL | Urinary PAGN, 90th percentile ([1]; dose <6 mL/m^2): 20797 µg/mL | Urinary PAGN, mean ([1]; dose <6 mL/m^2): 8353 µg/mL | Urinary PAGN, median ([1]; dose <6 mL/m^2): 3298 µg/mL | Urinary PAGN, 10th percentile ([1]; dose >10 mL/m^2): 264 µg/mL | Urinary PAGN, 25th percentile ([1]; dose >10 mL/m^2): 6990 µg/mL | Urinary PAGN, 75th percentile ([1]; dose >10 mL/m^2): 26247 µg/mL | Urinary PAGN, 90th percentile ([1]; dose >10 mL/m^2): 28084 µg/mL | Urinary PAGN, mean ([1]; dose >10 mL/m^2): 16842 µg/mL | Urinary PAGN, median ([1]; dose >10 mL/m^2): 17089 µg/mL | Mean ammonia values (ammonia; HPN-100-012 safety extension, pediatric UCD patients under six years): within normal limits | Ammonia control compared with NaPBA (ammonia; phase 2 HPN-100-005, 11 pediatric UCD patients age six years and up, PBA equimolar dosage): at least equivalent to NaPBA | Ammonia control compared with NaPBA (ammonia; phase 2 studies overall, equivalent dosages): at least equal to NaPBA | Ammonia control compared with NaPBA (ammonia; phase 3 HPN-100-006, 45 adult UCD patients, PBA equivalent dosage): non-inferior to NaPBA | Mean ammonia levels (ammonia; phase 3 extended dosing HPN-100-007 and HPN-100-005 safety extension, adult and pediatric UCD subjects): within normal limit | U-PAGN, 5th percentile [2, 6]: 3379.24 µg/mL | U-PAGN, 10th percentile [2, 6]: 4078.79 µg/mL | U-PAGN, 25th percentile [2, 6]: 5259 µg/mL and 5259.01 µg/mL | U-PAGN, 75th percentile [2, 6]: 11916.08 µg/mL | U-PAGN, 90th percentile [2, 6]: 15993.51 µg/mL | U-PAGN, 95th percentile [2, 6]: 20320.32 µg/mL | U-PAGN, maximum [2, 6]: 30304.04 µg/mL | U-PAGN, mean [2, 6]: 9058.68 µg/mL | U-PAGN, median [2, 6]: 7748.84 µg/mL | U-PAGN, minimum [2, 6]: 1157.49 µg/mL | U-PAGN, 5th percentile [2, 7]: 621.6 µg/mL | U-PAGN, 10th percentile [2, 7]: 3479.50 µg/mL | U-PAGN, 25th percentile [2, 7]: 7412 µg/mL and 7412.48 µg/mL | U-PAGN, 75th percentile [2, 7]: 23635.08 µg/mL | U-PAGN, 90th percentile [2, 7]: 29835.07 µg/mL | U-PAGN, 95th percentile [2, 7]: 33943.83 µg/mL | U-PAGN, maximum [2, 7]: 43372.15 µg/mL | U-PAGN, mean [2, 7]: 16186.11 µg/mL | U-PAGN, median [2, 7]: 15869.85 µg/mL | U-PAGN, minimum [2, 7]: 119.5 µg/mL | U-PAGN, 10th percentile ([3]; age group 2-<6 years): 1717 µg/mL | U-PAGN, 25th percentile ([3]; age group 2-<6 years): 5146 µg/mL | U-PAGN, 75th percentile ([3]; age group 2-<6 years): 20603 µg/mL | U-PAGN, 90th percentile ([3]; age group 2-<6 years): 27728 µg/mL | U-PAGN, maximum ([3]; age group 2-<6 years): 43372 µg/mL | U-PAGN, mean ([3]; age group 2-<6 years): 13420 µg/mL | U-PAGN, median ([3]; age group 2-<6 years): 12114 µg/mL | U-PAGN, minimum ([3]; age group 2-<6 years): 119 µg/mL | U-PAGN, 10th percentile ([3]; age group <2 years): 3265 µg/mL | U-PAGN, 25th percentile ([3]; age group <2 years): 8996 µg/mL | U-PAGN, 75th percentile ([3]; age group <2 years): 25019 µg/mL | U-PAGN, 90th percentile ([3]; age group <2 years): 28028 µg/mL | U-PAGN, maximum ([3]; age group <2 years): 44298 µg/mL | U-PAGN, mean ([3]; age group <2 years): 17330 µg/mL | U-PAGN, median ([3]; age group <2 years): 17229 µg/mL | U-PAGN, minimum ([3]; age group <2 years): 348 µg/mL | U-PAGN, 10th percentile ([3]; age group ≧6 years): 1564 µg/mL | U-PAGN, 25th percentile ([3]; age group ≧6 years): 4032 µg/mL | U-PAGN, 75th percentile ([3]; age group ≧6 years): 13846 µg/mL | U-PAGN, 90th percentile ([3]; age group ≧6 years): 21633 µg/mL | U-PAGN, maximum ([3]; age group ≧6 years): 60960 µg/mL | U-PAGN, mean ([3]; age group ≧6 years): 10103 µg/mL | U-PAGN, median ([3]; age group ≧6 years): 7185 µg/mL | U-PAGN, minimum ([3]; age group ≧6 years): 642 µg/mL | Safety of administration [4]: established the safety | U-PAGN, 5th percentile ([5]; BSA > 1.3 m^2): 3379.24 µg/mL | U-PAGN, 10th percentile ([5]; BSA > 1.3 m^2): 4078.79 µg/mL | U-PAGN, 25th percentile ([5]; BSA > 1.3 m^2): 5259 µg/mL and 5259.01 µg/mL | U-PAGN, 50th percentile ([5]; BSA > 1.3 m^2): 7748.84 µg/mL | U-PAGN, 75th percentile ([5]; BSA > 1.3 m^2): 11916.08 µg/mL | U-PAGN, 90th percentile ([5]; BSA > 1.3 m^2): 15993.51 µg/mL | U-PAGN, 95th percentile ([5]; BSA > 1.3 m^2): 20320.32 µg/mL | U-PAGN, maximum ([5]; BSA > 1.3 m^2): 30304.04 µg/mL | U-PAGN, mean ([5]; BSA > 1.3 m^2): 9058.68 µg/mL | U-PAGN, minimum ([5]; BSA > 1.3 m^2): 1157.49 µg/mL | U-PAGN, 5th percentile ([5]; BSA ≦ 1.3 m^2): 1061.84 µg/mL | U-PAGN, 10th percentile ([5]; BSA ≦ 1.3 m^2): 3645.97 µg/mL | U-PAGN, 25th percentile ([5]; BSA ≦ 1.3 m^2): 8390 µg/mL and 8390.07 µg/mL | U-PAGN, 50th percentile ([5]; BSA ≦ 1.3 m^2): 17075.13 µg/mL | U-PAGN, 75th percentile ([5]; BSA ≦ 1.3 m^2): 25465.73 µg/mL | U-PAGN, 90th percentile ([5]; BSA ≦ 1.3 m^2): 30830 µg/mL | U-PAGN, 95th percentile ([5]; BSA ≦ 1.3 m^2): 35516.41 µg/mL | U-PAGN, maximum ([5]; BSA ≦ 1.3 m^2): 44298.26 µg/mL | U-PAGN, mean ([5]; BSA ≦ 1.3 m^2): 17547.48 µg/mL | U-PAGN, minimum ([5]; BSA ≦ 1.3 m^2): 119.47 µg/mL
